# Target: GLP-1 Receptor (Homo sapiens, UniProt P43220)
# Assay: GLP-1R agonist cAMP stimulation assay (HEK293/GLP1R/CRE-LUC cells, HTRF cAMP dynamic 2 kit)
# Format: cell-based
# Conditions: HEK293/CRE-Luc cell line stably expressing the GLP-1 Receptor; 30 min incubation at 37° C.
# Experimental: Activation of GLP-1 receptor is known to stimulate cyclic AMP (cAMP) production in cells which indicates primary coupling to the Gas subunit of the G protein heterotrimeric complex.
# To optimize functional activity directed toward Gas coupling, a HEK293/CRE-Luc cell line developed by HDB stably expressing the GLP-1 Receptor was used. 200× concentration of compound working solutions were prepared (Agilent Technologies Bravo) with 1/2 log serial dilution in 384-well Echo LDV plate (Labcyte, Cat #LP-0200). 50 nL/well 200× concentration of compound working solutions were moved to 384-well white low volume plate (Greiner, Cat #784075) using Labcyte ECHO550. 1×10^5 cells/mL HEK293/GLP1R/CRE-LUC (HD Biosciences) cell suspensions prepared with assay buffer [DPBS containing 0.5 mM IBMX (Sigma, Cat #15879) and 0.10% BSA (GENVIEW, Cat #FA016-100g)], 10 μL cell suspensions were added to each well of previous generated assay plate which already contains 50 nL compound at 200× concentration using ThermoFisher Multidrop Combi (1000 cells/well). Seal the plate and incubate at 37° C. with 5% CO2 for 30 min.
# After incubation the cAMP assay signal was generated using cAMP dynamic 2 Kit (Cisbio). 5 μL cAMP-d2 working solution was added to each well, followed with 5 μL Anti-cAMP antibody-cryptate working solution added to each well using ThermoFisher Multidrop Combi. Incubate at room temperature for 1 hour protected from light. Read the fluorescence at 665 and 615 nm with Reader PerkinElmer EnVision.
# Sequence of GLP-1 Receptor (P43220 24-463): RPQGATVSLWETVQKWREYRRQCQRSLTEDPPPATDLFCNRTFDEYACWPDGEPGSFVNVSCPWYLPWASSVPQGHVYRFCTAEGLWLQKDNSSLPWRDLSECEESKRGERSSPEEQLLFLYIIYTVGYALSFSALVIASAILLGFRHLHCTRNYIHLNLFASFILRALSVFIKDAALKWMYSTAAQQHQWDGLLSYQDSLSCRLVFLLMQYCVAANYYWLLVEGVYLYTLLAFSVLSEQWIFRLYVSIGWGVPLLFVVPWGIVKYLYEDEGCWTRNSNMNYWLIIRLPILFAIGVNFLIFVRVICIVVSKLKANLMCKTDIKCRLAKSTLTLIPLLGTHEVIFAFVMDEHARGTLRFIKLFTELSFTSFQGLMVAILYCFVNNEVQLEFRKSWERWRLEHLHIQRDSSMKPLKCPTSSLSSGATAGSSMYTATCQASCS
row,SMILES,EC50
1,"O=c1[nH]c(-c2ccc3c(nc(CN4CCc5cc(C(F)(F)F)c(OCc6c(F)cc(Cl)cc6F)nc5C4)n3C[C@@H]3CCO3)c2F)no1 [Compound 48, 3-[2-({2-[(4-chloro-2,6-difluorophenyl)methoxy]-3-(trifluoromethyl)-5,6,7,8-tetrahydro-1,7-naphthyridin-7-yl}methyl)-4-fluoro-1-{[(2S)-oxetan-2-yl]methyl}-1H-1,3-benzodiazol-5-yl]-4,5-dihydro-1,2,4-oxadiazol-5-one]",1 to 300 nM
2,"Cc1cc2c(nc1OCc1c(F)cc(Cl)cc1F)CN(Cc1nc3cc(-c4nnc(C(F)(F)F)[nH]4)cnc3n1C[C@@H]1CCO1)CC2 [Compound 51, 2-[(4-chloro-2,6-difluorophenyl)methoxy]-3-methyl-7-[(3-{1[(2S)-oxetan-2-yl]methyl}-6-[5-(trifluoromethyl)-4H-1,2,4-triazol-3-yl]-3H-imidazo[4,5-b]pyridin-2-yl)methyl]-5,6,7,8-tetrahydro-1,7-naphthyridine]",< 1 nM
3,"Cc1cc2c(nc1OCc1ccc(Cl)cc1F)CN(Cc1nc3cc(-c4nnc(C(F)F)[nH]4)cnc3n1C[C@@H]1CCO1)CC2 [Compound 52, 2-[(4-chloro-2-fluorophenyl)methoxy]-7-({6-[5-(difluoromethyl)-4H-1,2,4-triazol-3-yl]-3-{[(2S)-oxetan-2-yl]methyl}-3H-imidazo[4,5-b]pyridin-2-yl}methyl)-3-methyl-5,6,7,8-tetrahydro-1,7-naphthyridine]",< 1 nM
4,"Cc1cc2c(nc1OCc1c(F)cc(Cl)cc1F)CN(Cc1nc3cc(-c4nnc(C(F)F)[nH]4)cnc3n1C[C@@H]1CCO1)CC2 [Compound 53, 2-[(4-chloro-2,6-difluorophenyl)methoxy]-7-({6-[5-(difluoromethyl)-4H-1,2,4-triazol-3-yl]-3-{1[(2S)-oxetan-2-yl]methyl}-3H-imidazo[4,5-b]pyridin-2-yl}methyl)-3-methyl-5,6,7,8-tetrahydro-1,7-naphthyridine]",< 1 nM
5,"FC(F)(F)c1nnc(-c2cc3nc(CN4CCc5cc(C(F)(F)F)c(OCc6ccc(Cl)cc6)nc5C4)n(C[C@@H]4CCO4)c3cn2)[nH]1 [Compound 54, 2-[(4-chlorophenyl)methoxy]-7-[(3-{1[(2S)-oxetan-2-yl]methyl}-6-[5-(trifluoromethyl)-4H-1,2,4-triazol-3-yl]-3H-imidazo[4,5-c]pyridin-2-yl)methyl]-3-(trifluoromethyl)-5,6,7,8-tetrahydro-1,7-naphthyridine]",< 1 nM
6,"Cc1cc2c(nc1OCc1c(F)cc(Cl)cc1F)CN(Cc1nc3cc(-c4nnc(C(F)(F)F)[nH]4)ncc3n1C[C@@H]1CCO1)CC2 [Compound 55, 2-[(4-chloro-2,6-difluorophenyl)methoxy]-3-methyl-7-[(3-{1[(2S)-oxetan-2-yl]methyl}-6-[5-(trifluoromethyl)-4H-1,2,4-triazol-3-yl]-3H-imidazo[4,5-c]pyridin-2-yl)methyl]-5,6,7,8-tetrahydro-1,7-naphthyridine]",< 1 nM
7,"Cc1cc2c(nc1OCc1c(F)cc(Cl)cc1F)CN(Cc1nc3cc(-c4nnc(C(F)F)[nH]4)ncc3n1C[C@@H]1CCO1)CC2 [Compound 56, 2-[(4-chloro-2,6-difluorophenyl)methoxy]-7-({6-[5-(difluoromethyl)-4H-1,2,4-triazol-3-yl]-3-{[(2S)-oxetan-2-yl]methyl}-3H-imidazo[4,5-c]pyridin-2-yl}methyl)-3-methyl-5,6,7,8-tetrahydro-1,7-naphthyridine]",< 1 nM
8,"O=c1[nH]c(-c2cc3c(nc(CN4CCc5cc(C(F)(F)F)c(OCc6ccc(Cl)cc6F)nc5C4)n3C[C@@H]3CCO3)s2)no1 [Compound 58, 3-[2-({2-[(4-chloro-2-fluorophenyl)methoxy]-3-(trifluoromethyl)-5,6,7,8-tetrahydro-1,7-naphthyridin-7-yl}methyl)-1-{[(2S)-oxetan-2-yl]methyl}-1H-thieno[2,3-d]imidazol-5-yl]-4,5-dihydro-1,2,4-oxadiazol-5-one]",< 1 nM
9,"Fc1cc(Cl)ccc1COc1nc2c(cc1C(F)(F)F)CCN(Cc1nc3sc(-c4nnc(C(F)(F)F)[nH]4)cc3n1C[C@@H]1CCO1)C2 [Compound 59, 2-[(4-chloro-2-fluorophenyl)methoxy]-7-[(1-{[(2S)-oxetan-2-yl]methyl}-5-[5-(trifluoromethyl)-4H-1,2,4-triazol-3-yl]-1H-thieno[2,3-d]imidazol-2-yl)methyl]-3-(trifluoromethyl)-5,6,7,8-tetrahydro-1,7-naphthyridine]",< 1 nM

# Second part, the compound after the results:
row,EC50,SMILES
1,< 1 nM,"Cc1cc2c(nc1OCc1c(F)cc(Cl)cc1F)CN(Cc1nc3cc(-c4nnc(C#N)[nH]4)ncc3n1C[C@@H]1CCO1)CC2 [Compound 40, 5-[2-({2-[(4-chloro-2,6-difluorophenyl)methoxy]-3-methyl-5,6,7,8-tetrahydro-1,7-naphthyridin-7-yl}methyl)-3-{[(2S)-oxetan-2-yl]methyl}-3H-imidazo[4,5-c]pyridin-6-yl]-4H-1,2,4-triazole-3-carbonitrile]"
2,< 1 nM,"Cc1cc2c(nc1OCc1c(F)cc(Cl)cc1F)CN(Cc1nc3cc(-c4nnc(C#N)[nH]4)cnc3n1C[C@@H]1CCO1)CC2 [Compound 41, 5-[2-({2-[(4-chloro-2,6-difluorophenyl)methoxy]-3-methyl-5,6,7,8-tetrahydro-1,7-naphthyridin-7-yl}methyl)-3-{1[(2S)-oxetan-2-yl]methyl}-3H-imidazo[4,5-b]pyridin-6-yl]-4H-1,2,4-triazole-3-carbonitrile]"
3,< 1 nM,"N#Cc1nnc(-c2cc3nc(CN4CCc5cc(C(F)(F)F)c(OCc6ccc(Cl)cc6F)nc5C4)n(C[C@@H]4CCO4)c3nn2)[nH]1 [Compound 42, 5-[6-({2-[(4-chloro-2-fluorophenyl)methoxy]-3-(trifluoromethyl)-5,6,7,8-tetrahydro-1,7-naphthyridin-7-yl}methyl)-7-{1[(2S)-oxetan-2-yl]methyl}-7H-imidazo[4,5-c]pyridazin-3-yl]-4H-1,2,4-triazole-3-carbonitrile]"
4,< 1 nM,"NC(=O)c1nnc(-c2cc3nc(CN4CCc5cc(C(F)(F)F)c(OCc6ccc(Cl)cc6F)nc5C4)n(C[C@@H]4CCO4)c3cn2)[nH]1 [Compound 43, 5-[2-({2-[(4-chloro-2-fluorophenyl)methoxy]-3-(trifluoromethyl)-5,6,7,8-tetrahydro-1,7-naphthyridin-7-yl}methyl)-3-{[(2S)-oxetan-2-yl]methyl}-3H-imidazo[4,5-c]pyridin-6-yl]-4H-1,2,4-triazole-3-carboxamide]"
5,< 1 nM,"NC(=O)c1nnc(-c2cc3nc(CN4CCc5cc(C(F)(F)F)c(OCc6c(F)cc(Cl)cc6F)nc5C4)n(C[C@@H]4CCO4)c3cn2)[nH]1 [Compound 44, 5-[2-({2-[(4-chloro-2,6-difluorophenyl)methoxy]-3-(trifluoromethyl)-5,6,7,8-tetrahydro-1,7-naphthyridin-7-yl}methyl)-3-{[(2S)-oxetan-2-yl]methyl}-3H-imidazo[4,5-c]pyridin-6-yl]-4H-1,2,4-triazole-3-carboxamide]"
6,< 1 nM,Cc1ccc(COc2nc3c(cc2C(F)(F)F)CCN(Cc2nc4c(F)c(-c5noc(=O)[nH]5)ccc4n2C[C@@H]2CCO2)C3)c(Cl)c1 [Compound 45]
7,< 1 nM,"O=c1[nH]c(-c2ccc3c(nc(CN4CCc5cc(C(F)(F)F)c(OCc6ccc(Cl)cc6)nc5C4)n3C[C@@H]3CCO3)c2F)no1 [Compound 46, 3-[2-({2-[(4-chlorophenyl)methoxy]-3-(trifluoromethyl)-5,6,7,8-tetrahydro-1,7-naphthyridin-7-yl}methyl)-4-fluoro-1-{[(2S)-oxetan-2-yl]methyl}-1H-1,3-benzodiazol-5-yl]-4,5-dihydro-1,2,4-oxadiazol-5-one]"
8,< 1 nM,"O=c1[nH]c(-c2ccc3c(nc(CN4CCc5cc(C(F)(F)F)c(OCc6ccc(Cl)cc6F)nc5C4)n3C[C@@H]3CCO3)c2F)no1 [Compound 47, 3-[2-({2-[(4-chloro-2-fluorophenyl)methoxy]-3-(trifluoromethyl)-5,6,7,8-tetrahydro-1,7-naphthyridin-7-yl}methyl)-4-fluoro-1-{[(2S)-oxetan-2-yl]methyl}-1H-1,3-benzodiazol-5-yl]-4,5-dihydro-1,2,4-oxadiazol-5-one]"
9,< 1 nM,"O=c1[nH]c(-c2ccc3c(n2)nc(CN2CCc4cc(C(F)(F)F)c(OCc5ccc(Cl)cc5F)nc4C2)n3C[C@@H]2CCO2)no1 [Compound 49, 3-[2-({2-[(4-chloro-2-fluorophenyl)methoxy]-3-(trifluoromethyl)-5,6,7,8-tetrahydro-1,7-naphthyridin-7-yl}methyl)-1-{[(2S)-oxetan-2-yl]methyl}-11H-imidazo[4,5-b]pyridin-5-yl]-4,5-dihydro-1,2,4-oxadiazol-5-one]"
10,< 1 nM,"Cc1cc2c(nc1OCc1c(F)cc(Cl)cc1F)CN(Cc1nc3nc(-c4noc(=O)[nH]4)ccc3n1C[C@@H]1CCO1)CC2 [Compound 50, 3-[2-({2-[(4-chloro-2,6-difluorophenyl)methoxy]-3-methyl-5,6,7,8-tetrahydro-1,7-naphthyridin-7-yl}methyl)-1-{1[(2S)-oxetan-2-yl]methyl}-1H-imidazo[4,5-b]pyridin-5-yl]-4,5-dihydro-1,2,4-oxadiazol-5-one]"

# From patent US20250206757A1 (GASHERBRUM BIO, INC., priority 2022, published 2025)
